Structures can show the parent of a compound that is named as a salt.
Assays:
[1] = tested on: leukotriene B4 (LTB4) production from human whole blood; assay: Effect on leukotriene B4 (LTB4) production from human whole blood; format: cell-based; details: Ca ionophore A23187 stimulated, plasma LTB4 by EIA
Method: (§1) iii) Effect on leukotriene B4 (LTB4) and TXB2 production from human whole blood […] The incubation was carried out for 5 min and terminated by centrifugation (12,000 rpm for 1-2 min). Resultant plasma was stocked at -70° C. until determination of the levels of LTB4 and TXB2. Plasma levels of LTB4 and TXB2 were determined by commercially available EIA kits (Cayman Chemical Company) following partial purification. The effect of compound tested was expressed as percentage inhibition against the amounts of LTB4 and TXB2 generated in vehicle (50% ethanol solution)-treated group.

[2] = tested on: TXB2 production from human whole blood; assay: Effect on TXB2 production from human whole blood; format: cell-based; details: Ca ionophore A23187 stimulated, plasma TXB2 by EIA
Method: as §1

[3] = tested on: lipid peroxides (TBARS) in rat liver homogenate; assay: Antioxidant action (lipid peroxides as TBARS in rat liver homogenate); format: biochemical, Sprague-Dawley rat; details: FeCl2-initiated, 1 hr at 37° C.
Method: Male Sprague-Dawley rat fasted overnight was anesthetized with diethyl ether, and liver was perfused, isolated and homogenized with 1.15% KCl (10% homogenate). The assay mixture contained 200 μl of liver homogenate, 5 μl of test compound and 10 μl of 4.4 mM FeCl2. The reaction was initiated by the addition of FeCl2, and the incubation was carried out for 1 hr at 37° C. The amounts of lipid peroxides produced during this incubation period were determined as thiobarbituric acid reactive substances (TBARS) according to the method described by OHKAWA et. al. (Analytical Biochemistry, 95, 351-358, 1979). The effects of compounds tested were expressed as percentage inhibition against the amounts of TBARS produced in vehicle (50% ethanol solution)-treated group.

human 5-lipoxygenase = target: T1, human 5-lipoxygenase (Homo sapiens, UniProt P09917); assay: Effect on human 5-lipoxygenase activity (cytosol fraction of polymorphonuclear leukocytes); format: biochemical; details: human PMN leukocyte cytosol fraction; 14C-arachidonic acid; 30° C., 1 min, pH 7.4
T1 construct: cytosol fraction of polymorphonuclear leukocytes prepared from human peripheral blood; endogenous in cells; host or cells: polymorphonuclear leukocytes from human peripheral blood (cytosol fraction)
T1 sequence (P09917 1-674): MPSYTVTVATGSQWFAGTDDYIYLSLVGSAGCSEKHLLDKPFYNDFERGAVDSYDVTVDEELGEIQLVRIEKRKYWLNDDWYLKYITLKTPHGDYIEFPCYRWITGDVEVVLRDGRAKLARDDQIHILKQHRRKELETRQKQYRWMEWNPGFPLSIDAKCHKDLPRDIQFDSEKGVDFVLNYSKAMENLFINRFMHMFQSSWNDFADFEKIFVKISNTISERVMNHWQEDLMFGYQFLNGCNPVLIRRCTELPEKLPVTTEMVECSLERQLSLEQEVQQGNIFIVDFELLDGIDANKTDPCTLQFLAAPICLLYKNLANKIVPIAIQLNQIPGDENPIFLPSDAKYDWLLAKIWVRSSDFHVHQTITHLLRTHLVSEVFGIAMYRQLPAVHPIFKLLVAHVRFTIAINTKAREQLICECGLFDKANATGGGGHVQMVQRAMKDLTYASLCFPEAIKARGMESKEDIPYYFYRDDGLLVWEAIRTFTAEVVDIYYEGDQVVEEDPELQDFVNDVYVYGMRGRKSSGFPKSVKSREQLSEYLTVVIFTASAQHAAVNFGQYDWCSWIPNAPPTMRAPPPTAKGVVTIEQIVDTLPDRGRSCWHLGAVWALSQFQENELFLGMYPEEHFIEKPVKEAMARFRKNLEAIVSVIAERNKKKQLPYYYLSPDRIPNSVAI
Method: i) Effect on human 5-lipoxygenase activity
The assay mixture consisted of 85 μl of potassium/phosphate buffer (pH 7.4) containing 1.18 mM of calcium ion, 5 μl of cytosol fraction of polymorphonuclear leukocytes prepared from human peripheral blood and 5 μl of test compound. The reaction was initiated by the addition of 5 μl of 1 mM ^14 C-arachidonic acid after 5 min equilibration period. The incubation was carried out at 30° C. for 1 min and terminated by the addition of 300 μl of a ice-cold mixture of diethyl ether/methanol/1M citric acid (30/4/1). The mixture was mixed vigorously and centrifuged at 1700 G for 2 min at 4° C. The resultant organic layer was treated with sodium borohydride, kept cold for more than 10 min and then evaporated to dryness under gentle stream of nitrogen. After 200 μl of a mixture of diethyl ether/methanol (30/4) was added to the test tube, the contents were extracted by the addition of 100 μl of 1M citric acid followed by centrifugation (1700 G for 2 min at 4° C.). The products in the upper layer were chromatographed on silica gel thin-layer with a solvent system of diethyl ether/petroleum ether/acetic acid (85/15/0.01) and autoradiographed on X-ray film. The arachidonic acid metabolites and residual substrate were quantified by chromatoscanner. The 5-lipoxygenase activity was calculated by subtracting the conversion rate of total radioactivity into 15-hydroxy eicosatetraenoic acid from total radioactivity. The effect of compounds tested were expressed as percentage inhibition against 5-lipoxygenase activity in the vehicle (50% ethanol solution)-treated group.

[4] = target: T2, human thromboxane A2 synthetase (Homo sapiens, UniProt P24557); assay: Effect on human thromboxane A2 synthetase activity (washed platelets); format: cell-based; details: conversion of 14C-arachidonic acid into TXB2, 37° C., 2 min
T2 construct: Washed platelet was prepared from citrate-treated [1/9 (v/v)] human peripheral blood; endogenous in cells; host or cells: washed platelets from human peripheral blood
T2 sequence (P24557 1-533): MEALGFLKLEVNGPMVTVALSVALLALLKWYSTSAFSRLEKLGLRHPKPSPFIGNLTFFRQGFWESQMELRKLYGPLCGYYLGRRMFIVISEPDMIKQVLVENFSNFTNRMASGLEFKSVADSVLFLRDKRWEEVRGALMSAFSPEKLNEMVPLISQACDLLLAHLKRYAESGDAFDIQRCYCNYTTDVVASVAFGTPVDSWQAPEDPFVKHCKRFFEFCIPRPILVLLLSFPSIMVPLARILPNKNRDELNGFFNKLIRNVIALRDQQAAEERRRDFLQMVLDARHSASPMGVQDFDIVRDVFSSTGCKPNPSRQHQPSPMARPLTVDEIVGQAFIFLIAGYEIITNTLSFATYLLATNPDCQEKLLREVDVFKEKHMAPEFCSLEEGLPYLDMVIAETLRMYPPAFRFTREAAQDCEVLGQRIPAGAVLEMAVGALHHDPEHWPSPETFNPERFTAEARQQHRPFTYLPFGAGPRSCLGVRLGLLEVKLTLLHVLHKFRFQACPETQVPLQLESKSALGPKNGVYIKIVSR
Method: ii) Effect on human thromboxane A2 synthetase activity
Washed platelet was prepared from citrate-treated [1/9 (v/v)] human peripheral blood and suspended in Ca^++ -free Krebs-Henseleit solution (pH 7.4) at a concentration of 10.8×10^7 cells/mi. The assay mixture contained 185 μl of cell suspension, 5 μl of test compound and 10 μl of 100 μM ^14 C-arachidonic acid. Before the reaction was started by the addition of ^14 C-arachidonic acid, the other components were equilibrated for 2 min at 37 ° C. The incubation was carried out at 37° C. for 2 min and terminated by the addition of 300 μl of a mixture of diethyl ether/methanol/1M citric acid (30/4/1). The contents were mixed and then centrifuged for 2 min at 1700 G at 4° C. The products in the resultant organic layer were chromatographed on silica gel thin-layer using a solvent system of a mixture of ethyl acetate/isooctane/acetic acid/H2 O (110/50/20/100) and then autoradiographed on X-ray film. The arachidonic acid metabolites and residual substrate were quantified by chromatoscanner. TXA2 synthetase activity was expressed as the conversion rate of total radioactivity into thromboxane B2 (TXB2), a stable metabolite of TXA2. The effects of compounds tested were expressed as percentage inhibition against the conversion rate of total radioactivity into TXB2 in vehicle (50% ethanol solution)-treated group.

SMILES	inhibition at 10 µM [1] [%]	inhibition at 10 µM [2] [%]	IC50 [3] [nM]	IC50 (human 5-lipoxygenase) [nM]	IC50 [4] [nM]
Cc1c(O)c(CCCSc2ccccc2)c2c(c1CCn1ccnc1)OC(C)(C)C2 [2(v)]	61	89	–	–	–
Cc1c(O)c(CC(C)C)c2c(c1CCn1ccnc1)OC1(CCCC1)C2 [2(x)]	70	82	–	–	–
CC1(C)CCc2c(Cn3ccnc3)c(O)c3ccccc3c2O1 [4(e)]	–	–	2600	690	8600
Cc1c(O)c(C(C)C)c2c(c1CCn1ccnc1)OC(C)(C)C2 [Example 2, 5-Hydroxy-2,2,6-trimethyl-4-isopropyl-7(2-(1-imidazolyl)ethyl)-2,3-dihydrobenzofuran hydrochloride]	74	92	–	–	–
COCOc1c(C)c(CCCOc2cccnc2)c2c(c1C)CCC(C)(C)O2 [Example 10]	–	–	4000	480	1400
Cc1c(O)c(C)c2c(c1CCCOc1cccnc1)OC(C)(C)CC2 [Example 11]	–	–	3700	1100	550
Cc1c(O)c(CCCn2ccnc2)cc2c1CC(C)(C)O2 [Example 13]	–	–	–	460	1000
COC(C)(C)Cc1c(O)c(C)c(CCn2ccnc2)c2c1CC(C)(C)O2 [Example 17]	22	36	–	–	–

Source: patent US5534536A, “Fused phenol derivatives” (Ono Pharmaceuticals Co. Ltd., priority 1993, dated 1996)
